# Assay results as given in patent US4436751A, “Nitrobenzyl monates antibacterial compounds” (Beecham Group Limited, priority 1980, dated 1984).
# Read-outs that look alike come from different tables or passages of the source.
# Tests used:
# Type in all cases: cell-based
# [1] = system: M. gallisepticum S6; test: Anti-mycoplasmal MIC in vitro, Friis broth agarose (Table 1); details: Mycoplasmoides gallisepticum
# [2] = system: M. suipneumoniae MS 16; test: as above; details: Mesomycoplasma hyopneumoniae, MS16, 144 h
# [3] = system: M. suipneumoniae NB12; test: as above; details: Mesomycoplasma hyopneumoniae
# [4] = system: P. mirabilis 889; test: Human bacteria MIC, nutrient agar with chocolated horse blood (Table 3)
# Description: (§1) The values were determined by serial dilutions in nutrient agar with 5% chocolated horse blood after incubations for 18 hours at 37° C.
# [5] = system: Staph. aureus Oxford; test: as above; details: Staphylococcus aureus; Staph. aureus Oxford; nutrient agar 5% chocolated horse blood, 18 hours 37° C.; read-out: MIC
# Description: as §1
# [6] = system: Strep. faecalis 1; test: as above
# Description: as §1
# [7] = system: Strep. pyogenes R80/421-A; test: as above; details: Streptococcus pyogenes, R80/421A, 18 h
# Description: as §1
# [8] = system: Ps. aeruginosa NCTC 10662; test: as above; details: Pseudomonas aeruginosa
# Description: as §1
# [9] = system: Sarcina lutea 8340; test: as above
# Description: as §1
# [10] = system: Corynebacterium xerosis 9755; test: as above
# Description: as §1
# [11] = system: Staph. aureus W2827; test: as above; details: Staphylococcus aureus; Staph. aureus W2827; nutrient agar 5% chocolated horse blood, 18 hours 37° C.; read-out: MIC
# Description: as §1
# [12] = system: Haemophilus influenzae Q1; test: as above
# Description: as §1
# [13] = system: E. Coli NCTC 10418; test: as above; details: Escherichia coli
# Description: as §1
# [14] = system: Bacillus subtilis 6633; test: as above
# Description: as §1
# [15] = system: K. aerogenes A; test: as above; details: Klebsiella aerogenes
# Description: as §1
# [16] = system: Pasteurella multocida 1633; test: as above; details: Pasteurella multocida 1633; nutrient agar 5% chocolated horse blood, 18 hours 37° C.; read-out: MIC
# Description: as §1
# [17] = system: Staph. aureus Russell; test: as above; details: Staphylococcus aureus; Staph. aureus Russell; nutrient agar 5% chocolated horse blood, 18 hours 37° C.; read-out: MIC
# Description: as §1
# [18] = system: M. hyosynoviae ATOC 25591; test: Anti-mycoplasmal MIC in vitro, Friis broth agarose (Table 1); details: 144 h
# [19] = system: M. hyorhinis ATCC 25021; test: as above; details: Mesomycoplasma hyorhinis, ATCC25021, 144 h
# [20] = system: M. suipneumoniae LABER; test: as above; details: Mesomycoplasma hyopneumoniae, 144 h
# [21] = system: M. suipneumoniae TAM 6N; test: as above; details: Mesomycoplasma hyopneumoniae, TAM6N, 144 h
# [22] = system: M. suipneumoniae ATCC 25095; test: as above; details: Mesomycoplasma hyopneumoniae, ATCC25095, 144 h
# [23] = system: Erysipelothrix rhusiopathiae NCTC 8163; test: Veterinary bacteria MIC, Diagnostic Sensitivity Test Agar (Table 2); details: NCTC8163; Erysipelothrix rhusiopathiae NCTC 8163; DST Agar, 10^4 organisms, 18 hours 37° C.; read-out: MIC
# Description: (§2) The values were determined using a two fold serial dilutions in Diagnostic Sensitivity Test Agar with an inoculum of 10^4 organisms and incubation for 18 hours at 37° C.
# [24] = system: Past. multocida PA1; test: as above; details: Pasteurella multocida; Past. multocida PA1; DST Agar, 10^4 organisms, 18 hours 37° C.; read-out: MIC
# Description: as §2
# [25] = system: Past. multocida PA2; test: as above; details: Pasteurella multocida; Past. multocida PA2; DST Agar, 10^4 organisms, 18 hours 37° C.; read-out: MIC
# Description: as §2
# [26] = system: Strep. uberis SPO1; test: as above; details: Streptococcus uberis; Strep. uberis SPO1; DST Agar, 10^4 organisms, 18 hours 37° C.; read-out: MIC
# Description: as §2
# [27] = system: Strep. suis (group D) SPS11; test: as above; details: Streptococcus suis
# Description: as §2
# [28] = Proteus mirabilis, P. mirabilis 889, nutrient agar 5% chocolated horse blood, 18 hours 37° C., read-out: MIC
# [29] = Enterococcus faecalis, Strep. faecalis 1, nutrient agar 5% chocolated horse blood, 18 hours 37° C., read-out: MIC
# [30] = NCTC10662, Ps. aeruginosa NCTC 10662, nutrient agar 5% chocolated horse blood, 18 hours 37° C., read-out: MIC
# [31] = Micrococcus luteus, Sarcina lutea 8340, nutrient agar 5% chocolated horse blood, 18 hours 37° C., read-out: MIC
# [32] = Corynebacterium xerosis 9755, nutrient agar 5% chocolated horse blood, 18 hours 37° C., read-out: MIC
# [33] = Haemophilus influenzae, Q1, 18 h
# [34] = NCTC10418, E. coli NCTC 10418, nutrient agar 5% chocolated horse blood, 18 hours 37° C., read-out: MIC
# [35] = K. aerogenes A, nutrient agar 5% chocolated horse blood, 18 hours 37° C., read-out: MIC
# [36] = M. suipneumoniae TAM 6N, in vitro, 6 days 37° C., read-out: MIC
# [37] = Strep. suis (group D) SPS11, DST Agar, 10^4 organisms, 18 hours 37° C., read-out: MIC
SMILES,"MIC [4, 28] [µg/mL]",MIC [5] [µg/mL],"MIC [6, 29] [µg/mL]",MIC [7] [µg/mL],"MIC [8, 30] [µg/mL]","MIC [9, 31] [µg/mL]","MIC [10, 32] [µg/mL]",MIC [11] [µg/mL],"MIC [12, 33] [µg/mL]","MIC [13, 34] [µg/mL]","MIC ([14]; Bacillus subtilis, 6633, 18 h) [µg/mL]","MIC [15, 35] [µg/mL]",MIC [16] [µg/mL],MIC [17] [µg/mL],"MIC [21, 36] [µg/mL]",MIC [23] [µg/mL],MIC [24] [µg/mL],MIC [25] [µg/mL],MIC [26] [µg/mL],"MIC [27, 37] [µg/mL]",also measured
"C/C(=C\C(=O)OC(C)c1cccc([N+](=O)[O-])c1)CC1OCC(CC2OC2C(C)C(C)O)C(O)C1O (stereo not drawn) [Example 3, 1-(m-nitrophenyl)ethyl monate A]",> 100,2.5,> 100,1,> 100,> 100,> 100,5,1,> 100,1,> 100,25,2.5,0.25,80,20,2.5,0.312,40,"MIC ([1]; 144 h, M. gallisepticum S6, in vitro, 6 days 37° C., read-out: MIC): > 10 µg/mL; MIC ([2]; M. suipneumoniae MS 16, in vitro, 6 days 37° C., read-out: MIC): 0.1 µg/mL; MIC ([3]; 144 h, M. suipneumoniae NB12, in vitro, 6 days 37° C., read-out: MIC): 0.25 µg/mL; MIC ([18]; M. hyosynoviae ATOC 25591, in vitro, 6 days 37° C., read-out: MIC): 0.25 µg/mL; MIC ([19]; M. hyorhinis ATCC 25021, in vitro, 6 days 37° C., read-out: MIC): 0.1 µg/mL; MIC ([20]; M. suipneumoniae LABER, in vitro, 6 days 37° C., read-out: MIC): 0.1 µg/mL; MIC ([22]; M. suipneumoniae ATCC 25095, in vitro, 6 days 37° C., read-out: MIC): 0.1 µg/mL"
"C/C(=C\C(=O)OCc1ccc([N+](=O)[O-])cc1)CC1OCC(CC2OC2C(C)C(C)O)C(O)C1O (stereo not drawn) [Example 1, p-nitrobenzyl monate A]",100,0.5,50,0.25,> 100,> 100,> 100,0.5,–,25,–,100,0.5,0.5,0.1,10,0.156,> 0.019,0.039,–,"MIC ([1]; S6, 144 h): 0.25 µg/mL; MIC [2]: 0.05 µg/mL; MIC ([3]; NB12, 144 h): 0.05 µg/mL; MIC ([12]; Haemophilus influenzae Q1, nutrient agar 5% chocolated horse blood, 18 hours 37° C., read-out: MIC): 0.1 µg/mL; MIC ([14]; Bacillus subtilis 6633, nutrient agar 5% chocolated horse blood, 18 hours 37° C., read-out: MIC): 0.5 µg/mL; MIC [18]: < 0.01 µg/mL; MIC [19]: 0.05 µg/mL; MIC [20]: 0.05 µg/mL; MIC [22]: 0.05 µg/mL; MIC ([27]; 18 h): 1.25 µg/mL"
"C/C(=C\C(=O)OCc1ccccc1[N+](=O)[O-])CC1OCC(CC2OC2C(C)C(C)O)C(O)C1O (stereo not drawn) [C, O--nitrobenzyl monate A, reference compound]",–,2.5,–,0.5,–,–,–,5,0.5,–,2.5,–,2.5,2.5,–,80,2.5,1.25,0.07,20,"MIC ([1]; S6, 144 h): 5 µg/mL; MIC [2]: 0.25 µg/mL; MIC ([3]; NB12, 144 h): 0.5 µg/mL; MIC ([4]; Proteus mirabilis, 889, 18 h): > 100 µg/mL; MIC ([6]; Enterococcus faecalis, 1, 18 h): > 100 µg/mL; MIC ([8]; NCTC10662, 18 h): > 100 µg/mL; MIC ([9]; Micrococcus luteus, 8340, 18 h): > 100 µg/mL; MIC ([10]; Corynebacterium xerosis, 9755, 18 h): > 100 µg/mL; MIC ([13]; NCTC10418, 18 h): > 100 µg/mL; MIC ([15]; 18 h): > 100 µg/mL; MIC [18]: 0.25 µg/mL; MIC [19]: 0.25 µg/mL; MIC [20]: 0.25 µg/mL; MIC [21]: 0.5 µg/mL; MIC [22]: 0.25 µg/mL"
